The results in this text go back to PubChem BioAssay (NCI).

The structures appear in SMILES notation.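 Exposure lasted 48 hours, with cells grown in 96-well plates and compounds tested at five concentrations. GI50 = concentration required for 50% inhibition of growth. TGI: total growth inhibition.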

Test systems include COLO 205 colon; EKVX NSCLC; HOP-62 NSCLC; HS 578T breast; K-562 leukemia; MALME-3M melanoma; MDA-MB-231 breast; RPMI-8226 leukemia; T-47D breast; UACC-257 melanoma.
Holding throughout (assay): inhibition of tumour cell growth, NCI panel, 48 h

For the compound `Cc1cc(Cl)nc2ccc(Cc3ccc4nc(Cl)cc(C)c4c3)cc12`, the TGI in the assay with COLO 205 colon was > 100 µM; with EKVX NSCLC it was > 100 µM; with HOP-62 NSCLC, 96.9 µM; in the assay on HS 578T breast, > 100 µM; in the assay with K-562 leukemia, > 100 µM; with MALME-3M melanoma, > 100 µM. Also, the TGI is > 100 µM with MDA-MB-231 breast, > 100 µM in the assay with RPMI-8226 leukemia, 54.8 µM in the assay with T-47D breast and > 100 µM with UACC-257 melanoma.
Regarding `N#CC(C#N)=NNc1ccc2cn[nH]c2c1`, the TGI in the assay with COLO 205 colon is > 100 µM; in the assay with EKVX NSCLC it was > 100 µM; in the assay on HOP-62 NSCLC it was > 100 µM; with HS 578T breast it was > 100 µM; in the assay with K-562 leukemia, > 100 µM; with MALME-3M melanoma it was 69.5 µM. The TGI in the assay with MDA-MB-231 breast was > 100 µM; in the assay with RPMI-8226 leukemia, 65.4 µM; with T-47D breast it was > 100 µM; with UACC-257 melanoma, 60.2 µM.
Consider `O=C(Cn1c(C(=O)c2ccc(Cl)cc2)nc(-c2ccc(Cl)cc2)c1-c1ccc(Cl)cc1)c1ccccc1`, for which the GI50 in the assay on COLO 205 colon, in the assay on EKVX NSCLC, with HOP-62 NSCLC, in the assay on HS 578T breast, in the assay with K-562 leukemia and in the assay on MALME-3M melanoma was > 100 µM throughout. Also, the GI50 in the assay with MDA-MB-231 breast, with RPMI-8226 leukemia, in the assay on T-47D breast and in the assay with UACC-257 melanoma was > 100 µM in each case. For the same compound, the TGI in the assay with COLO 205 colon, in the assay on EKVX NSCLC, in the assay with HOP-62 NSCLC, in the assay with HS 578T breast, with K-562 leukemia and in the assay with MALME-3M melanoma was > 100 µM each time. In addition, the TGI with MDA-MB-231 breast, in the assay with RPMI-8226 leukemia, with T-47D breast and with UACC-257 melanoma was > 100 µM each time.
Take `O=[N+]([O-])c1ccc(/C=C/c2nc3ccc(Cl)cc3[nH]2)cc1`: the GI50 with COLO 205 colon was > 100 µM; in the assay with EKVX NSCLC, > 100 µM; in the assay on HOP-62 NSCLC, 37.7 µM; in the assay with HS 578T breast, 68.2 µM; in the assay with K-562 leukemia, 5.99 µM; in the assay on MALME-3M melanoma, > 100 µM. Moreover, the GI50 is 26.5 µM in the assay with MDA-MB-231 breast, 31.4 µM in the assay on RPMI-8226 leukemia, 28.8 µM with T-47D breast and > 100 µM in the assay on UACC-257 melanoma. Also, the TGI with COLO 205 colon, with EKVX NSCLC, in the assay on HOP-62 NSCLC, in the assay on HS 578T breast, with K-562 leukemia and in the assay with MALME-3M melanoma was > 100 µM in each case. The TGI with MDA-MB-231 breast, with RPMI-8226 leukemia, in the assay on T-47D breast and in the assay on UACC-257 melanoma was > 100 µM each time.
Regarding `ClCCCSSCCCCl`, the TGI in the assay on COLO 205 colon was > 72.5 µM; in the assay on EKVX NSCLC, > 100 µM; in the assay with HOP-62 NSCLC it was > 100 µM; with HS 578T breast, 64.9 µM; in the assay on K-562 leukemia, > 100 µM; with MALME-3M melanoma, > 100 µM. Moreover, the TGI in the assay on MDA-MB-231 breast was > 80.2 µM; in the assay on RPMI-8226 leukemia, > 100 µM; in the assay on T-47D breast, > 100 µM; in the assay with UACC-257 melanoma, > 100 µM.
In the case of `Cc1ccc(C)c2c1C(=O)N(c1ccc(F)cc1F)C2=O`, the GI50 in the assay on COLO 205 colon, in the assay on EKVX NSCLC, with HOP-62 NSCLC, with HS 578T breast, in the assay on K-562 leukemia and with MALME-3M melanoma was > 100 µM throughout. Also, the GI50 is 22.9 µM in the assay with MDA-MB-231 breast, 98.8 µM with RPMI-8226 leukemia, 74.5 µM in the assay on T-47D breast and > 100 µM with UACC-257 melanoma. For the same compound, the TGI with COLO 205 colon, with EKVX NSCLC, in the assay with HOP-62 NSCLC, in the assay with HS 578T breast, with K-562 leukemia and with MALME-3M melanoma was > 100 µM in each case. Further, the TGI in the assay on MDA-MB-231 breast, with RPMI-8226 leukemia, in the assay with T-47D breast and in the assay on UACC-257 melanoma was > 100 µM in each case.
